Measurements taken from patent US10093623B2, “Cyclic amides as MetAP-2 inhibitors” (MERCK PATENT GmbH, priority 2012, dated 2018).

Target: MetAP-2 (Homo sapiens, UniProt P50579)
Experiment: MetAP-2 activity measurement (coupled enzymatic reactions, Met-Arg-Ser substrate, dianisidine detection at 450 nm)
Type: biochemical
Conditions: Inhibition of MetAP-2; read-out: IC50 enzyme
In short: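 Rate read from the linear part of the 450 nm absorbance trace. Dianisidine oxidation by peroxidase reports H2O2 made when amino acid oxidase acts on methionine cleaved from MAS tripeptide, one mol dye per mol Met; extinction coefficient gives molar activity.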

Chain of MetAP-2 (P50579 whole entry, species assumed): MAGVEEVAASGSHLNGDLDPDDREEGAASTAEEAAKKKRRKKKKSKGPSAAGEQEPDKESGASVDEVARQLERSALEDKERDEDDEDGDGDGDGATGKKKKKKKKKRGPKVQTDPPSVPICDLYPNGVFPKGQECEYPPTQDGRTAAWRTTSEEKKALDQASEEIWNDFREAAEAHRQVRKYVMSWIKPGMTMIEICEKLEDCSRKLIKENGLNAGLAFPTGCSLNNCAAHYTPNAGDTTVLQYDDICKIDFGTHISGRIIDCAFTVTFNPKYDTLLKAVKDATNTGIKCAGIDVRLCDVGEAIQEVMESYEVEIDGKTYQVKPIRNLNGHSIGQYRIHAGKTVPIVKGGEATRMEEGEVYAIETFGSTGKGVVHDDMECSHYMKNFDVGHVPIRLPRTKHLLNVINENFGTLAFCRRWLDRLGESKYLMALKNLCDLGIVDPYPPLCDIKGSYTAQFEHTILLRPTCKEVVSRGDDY

Compared with `O=C1CCc2cc(NC(=O)C3(O)CCN(c4ccc5c(c4)CCC(=O)N5)C3=O)ccc2N1` (stereo not shown) [B50, N-(2-Oxo-1,2,3,4-tetrahydro-quinolin-6-yl)-3-hydroxy-2-oxo-1-(2-oxo-1,2,3,4-tetrahydro-quinolin-6-yl)pyrrolidine-3-carboxamide], `O=C1CCc2cc(N3CC[C@](O)(C(=O)NCc4ccc(Cl)cc4F)C3=O)ccc2N1` [A241, N-(4-Chloro-2-fluorobenzyl)-(S)-3-hydroxy-2-oxo-1-(2-oxo-1,2,3,4-tetrahydroquinolin-6-yl)-pyrrolidine-3-carboxamide] is lower in IC50: > 10000 nM for the first, 10 to 1000 nM for the second.

First: N#Cc1c[nH]c2ccc(N3CC[C@@](O)(C(=O)NCc4cc(F)cc(Cl)c4)C3=O)cc12 [A224, N-(3-Chloro-5-fluorobenzyl)-(R)-1-(3-cyano-1H-indol-5-yl)-3-hydroxy-2-oxopyrrolidine-3-carboxamide]
Second: O=C(O)c1cc2cc(N3CC[C@@](O)(C(=O)NCc4cc(F)cc(Cl)c4)C3=O)ccc2[nH]1 [B85, 5-[(R)-3-(3-Chloro-5-fluorobenzylcarbamoyl)-3-hydroxy-2-oxopyrrolidin-1-yl]-1H-indole-2-carboxylic acid]
The IC50 of the first is lower: 1000 to 10000 nM for the first, > 10000 nM for the second. The first is the more potent here.

`NC(=O)c1ccc(F)c(N2CC[C@](O)(C(=O)NCc3cc(F)cc(Cl)c3)C2=O)c1` [B70, N-(3-Chloro-5-fluorobenzyl)-(S)-1-(5-carbamoyl-2-fluorophenyl)-3-hydroxy-2-oxopyrrolidine-3-carboxamide] and `NC(=O)c1cc(N2CCC(O)(C(=O)NCc3cc(F)cc(Cl)c3)C2=O)ccc1F` (stereo not shown) [B28, N-(3-Chloro-5-fluorobenzyl)-1-(3-carbamoyl-4-fluorophenyl)-3-hydroxy-2-oxopyrrolidine-3-carboxamide] fall in the same range of IC50: 10 to 1000 nM for the first, 10 to 1000 nM for the second.

`O=C(c1cccc(N2CC[C@](O)(C(=O)NCc3cc(F)cc(Cl)c3)C2=O)c1)N1CCCCC1` [A95, N-(3-Chloro-5-fluorobenzyl)-(S)-3-hydroxy-2-oxo-1-[3-(piperidin-1-carbonyl)phenyl]pyrrolidine-3-carboxamide] and `O=C(c1cccc(N2CC[C@](O)(C(=O)NCc3cc(F)cc(Cl)c3)C2=O)c1)N1CCOCC1` [A72, N-(3-Chloro-5-fluorobenzyl)-(S)-3-hydroxy-1-[3-(morpholine-4-carbonyl)phenyl]-2-oxopyrrolidine-3-carboxamide] fall in the same range of IC50: 10 to 1000 nM for the first, 10 to 1000 nM for the second.

First: O=C1CCc2cc(N3CC[C@](O)(C(=O)NCCc4cc(F)cc(Cl)c4)C3=O)ccc2N1 [A149, N-[2-(3-Chloro-5-fluorophenyl)-ethyl]-(S)-3-hydroxy-2-oxo-1-(2-oxo-1,2,3,4-tetrahydroquinolin-6-yl)pyrrolidine-3-carboxamide]
Second: O=C1CCc2cc(N3CC[C@](O)(C(=O)NCc4ccc(Cl)c(F)c4)C3=O)ccc2N1 [A265, N-(4-Chloro-3-fluorobenzyl)-(S)-3-hydroxy-2-oxo-1-(2-oxo-1,2,3,4-tetrahydroquinolin-6-yl)-pyrrolidine-3-carboxamide]
The IC50 of the first is lower: 10 to 1000 nM for the first, 1000 to 10000 nM for the second. The first is the more potent here.

`CNC(=O)CN1CCC(O)(C(=O)NCc2cc(F)cc(Cl)c2)C1=O` (stereo not shown) [A208, N-(3-Chloro-5-fluorobenzyl)-3-hydroxy-1-methylcarbamoyl-methyl-2-oxopyrrolidine-3-carboxamide] and `NC(=O)CN1CCC(O)(C(=O)NCc2cc(F)cc(Cl)c2)C1=O` (stereo not shown) [A248, N-(3-Chloro-5-fluorobenzyl)-1-carbamoylmethyl-3-hydroxy-2-oxopyrrolidine-3-carboxamide] fall in the same range of IC50: 1000 to 10000 nM for the first, 1000 to 10000 nM for the second.

First: O=C(NCc1cc(F)cc(Cl)c1)C1(O)CCN(Cc2ccccc2)C1 (stereo not shown) [A121, N-(3-chloro-5-fluorobenzyl)-1-benzyl-3-hydroxypyrrolidine-3-carboxamide]
Second: O=C(NCc1cc(F)cc(Cl)c1)[C@@]1(O)CCN(OCc2ccccc2)C1=O [B136, N-(3-Chloro-5-fluorobenzyl)-(S)-1-benzyloxy-3-hydroxy-2-oxo-pyrrolidine-3-carboxamide]
The IC50 of the first is higher: 1000 to 10000 nM for the first, 10 to 1000 nM for the second. The second is the more potent here.

`CC(=O)Nc1ccc(N2CCC(O)(C(=O)NCCc3cccc(F)c3)C2=O)cn1` (stereo not shown) [A174, N-[2-(3-Fluorophenyl)ethyl]-1-(6-acetylaminopyridin-3-yl)-3-hydroxy-2-oxopyrrolidine-3-carboxamide] and `O=C1CCc2cc(N3CC[C@](O)(C(=O)NCCc4ccccc4F)C3=O)ccc2N1` [B5, N-[2-(2-Fluorophenyl)ethyl]-(S)-3-hydroxy-2-oxo-1-(2-oxo-1,2,3,4-tetrahydroquinolin-6-yl)-pyrrolidine-3-carboxamide] fall in the same range of IC50: 10 to 1000 nM for the first, 10 to 1000 nM for the second.

`O=C1CCc2cc(N3CCCC(O)(CNCc4cc(F)cc(Cl)c4)C3=O)ccc2N1` (stereo not shown) [B68, 6-{3-[(3-Chloro-5-fluorobenzylamino)methyl]-3-hydroxy-2-oxopiperidin-1-yl}-3,4-dihydro-1H-quinolin-2-one] and `O=C1N(c2ccccc2)CC[C@@]1(O)CNCc1cc(F)cc(Cl)c1` [B58, (R)-3-[(3-Chloro-5-fluorobenzylamino)methyl]-3-hydroxy-1-phenylpyrrolidin-2-one] fall in the same range of IC50: 1000 to 10000 nM for the first, 1000 to 10000 nM for the second.

`CN(C)C(=O)c1cc2cc(N3CC[C@](O)(C(=O)NCc4cc(F)cc(Cl)c4)C3=O)ccc2[nH]1` [B95, N,N-Dimethyl-5-[(S)-3-(3-chloro-5-fluorobenzylcarbamoyl)-3-hydroxy-2-oxopyrrolidin-1-yl]-1H-indole-2-carboxamide] and `NC(=O)c1cc2cc(N3CCC(O)(C(=O)NCc4cc(F)cc(Cl)c4)C3=O)ccc2[nH]1` (stereo not shown) [A211, 5-[3-(3-Chloro-5-fluorobenzylcarbamoyl)-3-hydroxy-2-oxopyrrolidin-1-yl]-1H-indole-2-carboxamide] fall in the same range of IC50: 10 to 1000 nM for the first, 10 to 1000 nM for the second.

`O=C1CCc2cc(N3CC[C@](O)(C(=O)NCc4c(F)ccc(F)c4Cl)C3=O)ccc2N1` [A244, N-(2-Chloro-3,6-difluorobenzyl)-(S)-3-hydroxy-2-oxo-1-(2-oxo-1,2,3,4-tetrahydroquinolin-6-yl)-pyrrolidine-3-carboxamide] and `O=C1NCCc2cc(N3CC[C@](O)(C(=O)NCc4cc(F)cc(Cl)c4)C3=O)ccc21` [A96, N-(3-Chloro-5-fluorobenzyl)-(S)-3-hydroxy-2-oxo-1-(1-oxo-1,2,3,4-tetrahydroisoquinolin-6-yl)pyrrolidine-3-carboxamide] fall in the same range of IC50: 10 to 1000 nM for the first, 10 to 1000 nM for the second.

First: O=C1Nc2ccc(N3CC[C@@](O)(C(=O)NCc4cc(F)cc(Cl)c4)C3=O)cc2C1(F)F [A288, N-(3-Chloro-5-fluorobenzyl)-(R)-1-(3,3-difluoro-2-oxo-2,3-dihydro-1H-indol-5-yl)-3-hydroxy-2-oxopyrrolidine-3-carboxamide]
Second: O=C(NCc1cc(F)cc(Cl)c1)[C@@]1(O)CCN(c2ccc(Br)c(CO)c2)C1=O [B17, N-(3-Chloro-5-fluorobenzyl)-(S)-1-(4-bromo-3-hydroxymethyl-phenyl)-3-hydroxy-2-oxo-pyrrolidine-3-carboxamide]
The IC50 of the first is higher: > 10000 nM for the first, 10 to 1000 nM for the second. The second is the more potent here.

`O=C(c1cc2cc(N3CC[C@](O)(C(=O)NCc4cc(F)cc(Cl)c4)C3=O)ccc2[nH]1)N1CCC1` [B114, N-(3-Chloro-5-fluorobenzyl)-(S)-1-[2-(azetidine-1-carbonyl)-1H-indol-5-yl]-3-hydroxy-2-oxo-pyrrolidine-3-carboxamide] and `O=C(c1cc2cc(N3CC[C@](O)(C(=O)NCc4cc(F)cc(Cl)c4)C3=O)ccc2[nH]1)N1CCOCC1` [B112, N-(3-Chloro-5-fluorobenzyl)-(S)-3-hydroxy-1-[2-(morpholine-4-carbonyl)-1H-indol-5-yl]-2-oxo-pyrrolidine-3-carboxamide] fall in the same range of IC50: 10 to 1000 nM for the first, 10 to 1000 nM for the second.

First: CC(=O)N1CCC2(CC1)CN(c1ccccc1)C(=O)[C@@]2(O)C(=O)NCc1cc(F)cc(Cl)c1 [A71, N-(3-Chloro-5-fluorobenzyl)-(S)-8-acetyl-4-hydroxy-3-oxo-2-phenyl-2,8-diazaspiro[4.5]decane-4-carboxamide]
Second: O=C(NCCO)c1cccc(N2CC[C@](O)(C(=O)NCc3cc(F)cc(Cl)c3)C2=O)c1 [A88, N-(3-Chloro-5-fluorobenzyl)-(S)-3-hydroxy-1-[3-(2-hydroxy-ethylcarbamoyl)phenyl]-2-oxo-pyrrolidine-3-carboxamide]
The IC50 of the first is higher: > 10000 nM for the first, 10 to 1000 nM for the second.

Compared with `O=C(NCc1cc(F)cc(Cl)c1)[C@]1(O)CCN(c2ccc(C(F)(F)F)nc2)C1=O` [A108, N-(3-Chloro-5-fluorobenzyl)-(R)-3-hydroxy-2-oxo-1-(6-trifluoromethylpyridin-3-yl)-pyrrolidine-3-carboxamide], `NC(=O)c1cncc(N2CCC(O)(C(=O)NCc3cc(F)cc(Cl)c3)C2=O)c1` (stereo not shown) [A216, 5-[3-(3-Chloro-5-fluorobenzylcarbamoyl)-3-hydroxy-2-oxopyrrolidin-1-yl]-nicotinamide] is lower in IC50: > 10000 nM for the first, 10 to 1000 nM for the second. The second is the more potent here.

`CC(C)OC(=O)C1(O)CCN(C(=O)OCc2ccccc2)C1=O` (stereo not shown) [B53, 1-Benzyl 3-isopropyl 3-hydroxy-2-oxopyrrolidine-1,3-dicarboxylate] and `CN(C)CCN(C)C(=O)[C@@]1(O)CCN(c2ccccc2)C1=O` [A61] cannot be ordered by IC50: > 10000 nM for the first, > 10000 nM for the second.

`CN1CCCC1CCNC(=O)[C@@]1(O)CCN(c2ccccc2)C1=O` (stereo partly drawn) [A63, N-[2-(1-Methylpyrrolidin-2-yl)ethyl]-(S)-3-hydroxy-2-oxo-1-phenyl-pyrrolidine-3-carboxamide] and `O=C(N1CCN(CCO)CC1)[C@@]1(O)CCN(c2ccccc2)C1=O` [A57, (S)-3-Hydroxy-3-[4-(2-hydroxy-ethyl)piperazine-1-carbonyl]-1-phenylpyrrolidin-2-one] cannot be ordered by IC50: > 10000 nM for the first, > 10000 nM for the second.

`O=C(NCc1cc(F)cc(Cl)c1)C1(O)CCN(C[C@H]2CC[C@H](C(=O)O)CC2)C1=O` (stereo partly shown) [A227, 4-[3-(3-Chloro-5-fluorobenzyl-carbamoyl)-3-hydroxy-2-oxo-pyrrolidin-1-ylmethyl]cyclo-hexanecarboxylic acid] and `O=C(NCc1ccc(F)cc1)C1(O)CCCN(Cc2ccc(F)c(F)c2)C1=O` (stereo not shown) [A257, N-(4-Fluorobenzyl)-1-(3,4-difluorobenzyl)-3-hydroxy-2-oxo-piperidine-3-carboxamide] fall in the same range of IC50: 1000 to 10000 nM for the first, 1000 to 10000 nM for the second.

With `O=C(NCc1ccc(F)cc1)[C@]1(O)CCCN(Cc2cccc(F)c2F)C1=O` [A262, N-(4-Fluorobenzyl)-(R)-1-(2,3-difluorobenzyl)-3-hydroxy-2-oxo-piperidine-3-carboxamide] the IC50 was > 10000 nM.
